In experiment [1] the target is T1, SARS-CoV-2 Mpro (Severe acute respiratory syndrome coronavirus 2, UniProt P0DTD1). Kind of experiment: biochemical. The following applies: for inhibition at 2 µM / inhibition at 10 µM / inhibition at 50 µM: read-out: inhibition of SARS-CoV-2 Mpro enzyme activity (inhibition rate).
Experiment [2] deals with T1, SARS-CoV-2 Mpro. Type of experiment: binding. To be noted: for SPR response units (RUs) in sensorgrams, up to: highest response in SPR sensorgrams; for binding capacity in SPR sensorgrams (in words): Supporting Information.

Regarding `O=C1O[C@H]2[C@@H]3OC(=O)c4cc(O)c(O)c(O)c4-c4c(O)c(O)c5oc(=O)c6c(c(O)c(O)c7oc(=O)c4c5c76)-c4c(cc(O)c(O)c4O)C(=O)OC[C@H]3OC(O)[C@@H]2OC(=O)c2cc(O)c(O)c(O)c2-c2c1cc(O)c(O)c2O` (mixture of isomers) [PA, punicalagin], on SARS-CoV-2 Mpro [1], the inhibition at 2 µM worked out at 2%, the inhibition at 10 µM came to 59% and the inhibition at 50 µM was determined as 100%.

As for `O=c1oc2c(O)c(O)cc3c(=O)oc4c(O)c(O)cc1c4c23` [EA, ellagic acid], on SARS-CoV-2 Mpro [1], the inhibition at 2 µM was determined as 3%, the inhibition at 10 µM came out at 28% and the inhibition at 50 µM was 57%.

Turning to `O=C(O)c1cc(O)c(O)c(O)c1` [GLA, gallic acid], the “SPR response units (RUs) in sensorgrams, up to” value (shortened to “SPR response units (RUs)”) on SARS-CoV-2 Mpro [2] is “up to 30 RU”.

With `O=C(OC[C@H]1O[C@@H](OC(=O)c2cc(O)c(O)c(O)c2)[C@H](OC(=O)c2cc(O)c(O)c(O)c2)[C@@H](OC(=O)c2cc(O)c(O)c(O)c2)[C@@H]1OC(=O)c1cc(O)c(O)c(O)c1)c1cc(O)c(O)c(O)c1` [PGG, 1,2,3,4,6-penta-O-galloyl-ß-D-glucose], on SARS-CoV-2 Mpro [1], the inhibition at 2 µM worked out at 14%, the inhibition at 10 µM stood at 73% and the inhibition at 50 µM is 100%. At SARS-CoV-2 Mpro [2], the “SPR response units (RUs)” value is reported as at most 1186 RU.

With `Oc1cccc(O)c1O` [PYG, pyrogallol], the inhibition at 2 µM on SARS-CoV-2 Mpro [1] is 20%. Moreover, the reference binding signal result at SARS-CoV-2 Mpro [2] (CM5 sensor chip) was “less than 10%”. At SARS-CoV-2 Mpro [2] (PEG sensor chip), the “reference signal (reference binding RUs over binding level RUs)” value is 64%.

On to `O=C(OC[C@H]1O[C@@H](OC(=O)c2cc(O)c(O)c(OC(=O)c3cc(O)c(O)c(O)c3)c2)[C@H](OC(=O)c2cc(O)c(O)c(OC(=O)c3cc(O)c(O)c(O)c3)c2)[C@@H](OC(=O)c2cc(O)c(O)c(OC(=O)c3cc(O)c(O)c(O)c3)c2)[C@@H]1OC(=O)c1cc(O)c(O)c(OC(=O)c2cc(O)c(O)c(O)c2)c1)c1cc(O)c(O)c(OC(=O)c2cc(O)c(O)c(O)c2)c1` [TA, tannic acid], for which the entries for the “inhibition of SARS-CoV-2 Mpro enzyme activity (inhibition rate)” value against SARS-CoV-2 Mpro [1] (2 μM), against SARS-CoV-2 Mpro [1] (10 μM) and against SARS-CoV-2 Mpro [1] (50 μM) were 13%, 73% and 100%, respectively. Besides, the “SPR response units (RUs)” value at SARS-CoV-2 Mpro [2] was “up to 643 RU”.

In the case of `O=c1oc2cc(O)ccc2c2ccc(O)cc12` [UA, urolithin A], the “binding capacity in SPR sensorgrams (in words)” value at SARS-CoV-2 Mpro [2] is recorded as “undetectable binding capacity”.

For the molecule `O=c1oc2cc(O)ccc2c2ccccc12` [UB, urolithin B], on SARS-CoV-2 Mpro [2], the “binding capacity in SPR sensorgrams (in words)” value is given as “weak binding capacity” and the “SPR response units (RUs)” value is given as below 10 RU.

`O=c1c(O)c(-c2ccc(O)c(O)c2)oc2cc(O)cc(O)c12` [quercetin, reference compound]: the “SPR response units (RUs)” value at SARS-CoV-2 Mpro [2] is reported as “up to 103 RU”.
